Assay in all cases: cAMP accumulation
What all share (type): cell-based

The target of one assay is T1, hCTR C289A (Homo sapiens, UniProt P30988, C289A).
T1 construct: c-Myc (N); expressed in transfected cells
T1 sequence (P30988 25-474 C289A): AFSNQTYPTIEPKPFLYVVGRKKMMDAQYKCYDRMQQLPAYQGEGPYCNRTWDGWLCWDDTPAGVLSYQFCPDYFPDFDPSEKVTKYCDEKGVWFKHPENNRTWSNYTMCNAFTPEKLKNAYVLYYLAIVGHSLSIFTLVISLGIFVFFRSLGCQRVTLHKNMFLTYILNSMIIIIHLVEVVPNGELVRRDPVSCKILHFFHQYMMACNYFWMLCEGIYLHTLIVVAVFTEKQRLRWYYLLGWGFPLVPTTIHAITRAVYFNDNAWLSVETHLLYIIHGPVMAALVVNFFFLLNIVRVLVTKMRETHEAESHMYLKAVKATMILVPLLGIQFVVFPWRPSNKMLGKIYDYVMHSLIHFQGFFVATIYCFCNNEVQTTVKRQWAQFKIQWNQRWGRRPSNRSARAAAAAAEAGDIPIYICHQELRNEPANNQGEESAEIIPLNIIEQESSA
The conditions noted are these: mean ± S.E.M.; for Emax: cAMP maximal response, SEM. The gist of the method: (§1)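 30 min ligand stimulation with IBMX present; cells seeded overnight beforehand. Ethanol extract, dried at RT.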

The next assay has as its target T2, hCTR G369A (Homo sapiens, UniProt P30988, G369A).
T2 construct: c-Myc (N); expressed in transfected cells
T2 sequence (P30988 25-474 G369A): T1 sequence (P30988 25-474 C289A) with A265C, G345A
Conditions: mean ± S.E.M.; for Emax: cAMP maximal response, SEM; for EC50: cAMP, CV1-FlpIn cells, 30 min, IBMX. The gist of the method: as §1

In the next assay the target is T3, hCTR I300A (Homo sapiens, UniProt P30988, I300A).
T3 construct: c-Myc (N); expressed in transfected cells
T3 sequence (P30988 25-474 I300A): T1 sequence (P30988 25-474 C289A) with A265C, I276A
The conditions noted are these: mean ± S.E.M.; for Emax: cAMP maximal response, SEM; for EC50: cAMP, CV1-FlpIn cells, 30 min, IBMX. The gist of the method: as §1

The target of the next assay is T4, hCTR R281A (Homo sapiens, UniProt P30988, R281A).
T4 construct: expressed in transfected cells
T4 sequence (P30988 25-474 R281A): T1 sequence (P30988 25-474 C289A) with R257A, A265C
The conditions noted are these: mean ± S.E.M.; for Emax: cAMP maximal response, SEM; for EC50: cAMP, CV1-FlpIn cells, 30 min, IBMX. In short, it runs like this: as §1

Another assay deals with T5, hCTR V283A (Homo sapiens, UniProt P30988, V283A).
T5 construct: expressed in transfected cells
T5 sequence (P30988 25-474 V283A): T1 sequence (P30988 25-474 C289A) with V259A, A265C
The conditions noted are these: mean ± S.E.M.; for Emax: cAMP maximal response, SEM; for EC50: cAMP, CV1-FlpIn cells, 30 min, IBMX. In short, it runs like this: as §1

Numbering of substitutions follows the chain as printed. Where a SMILES comes first, the peptide text is derived from it. Bridges are numbered along the chain shown (N, C = ends).

The term Emax denotes the maximal effect, on the per cent scale that the assay sets. Take `CC[C@H](C)[C@H](NC(=O)[C@H](C)NC(=O)[C@@H](NC(=O)[C@H](CCC(N)=O)NC(=O)[C@@H]1CCCN1C(=O)[C@H](Cc1ccccc1)NC(=O)[C@@H](NC(=O)[C@H](Cc1c[nH]cn1)NC(=O)[C@H](Cc1ccccc1)NC(=O)[C@H](CCCCN)NC(=O)[C@H](CC(N)=O)NC(=O)[C@H](Cc1ccccc1)NC(=O)[C@H](CC(=O)O)NC(=O)[C@H](CCC(N)=O)NC(=O)[C@@H](NC(=O)[C@H](Cc1ccc(O)cc1)NC(=O)[C@@H](NC(=O)CNC(=O)[C@H](CC(C)C)NC(=O)[C@H](CCSC)NC(=O)[C@@H]1CSSC[C@H](N)C(=O)NCC(=O)N[C@@H](CC(N)=O)C(=O)N[C@@H](CC(C)C)C(=O)N[C@@H](CO)C(=O)N[C@@H]([C@@H](C)O)C(=O)N1)[C@@H](C)O)[C@@H](C)O)[C@@H](C)O)[C@@H](C)O)C(=O)NCC(=O)N[C@H](C(=O)NCC(=O)N[C@@H](C)C(=O)N1CCC[C@H]1C(N)=O)C(C)C` [hCT]: the Emax at hCTR C289A came out at 148 ± 7%; at hCTR G369A, 129 ± 9%; on hCTR I300A, 116 ± 6%; on hCTR R281A, 117 ± 15%; at hCTR V283A, 90 ± 7%.

A word on the EC50: it is the concentration giving half of the maximal effect. The low end stands for a more potent agent, the high end for a less potent agent. For the compound `CC(C)C[C@H](NC(=O)CNC(=O)[C@H](C)NC(=O)[C@H](CC(C)C)NC(=O)[C@H](CCCNC(=N)N)NC(=O)[C@H](Cc1cnc[nH]1)NC(=O)[C@@H](NC(=O)[C@@H](NC(=O)[C@@H]1CSSC[C@H](NC(=O)[C@H](C)N)C(=O)N[C@@H](CC(=O)O)C(=O)N[C@@H]([C@@H](C)O)C(=O)N[C@@H](C)C(=O)N[C@@H]([C@@H](C)O)C(=O)N1)C(C)C)[C@@H](C)O)C(=O)N[C@@H](CC(C)C)C(=O)N[C@@H](CO)C(=O)N[C@@H](CCCNC(=N)N)C(=O)N[C@@H](CO)C(=O)NCC(=O)NCC(=O)N[C@H](C(=O)N[C@H](C(=O)N[C@@H](CCCCN)C(=O)N[C@@H](CC(N)=O)C(=O)N[C@@H](CC(N)=O)C(=O)N[C@@H](Cc1ccccc1)C(=O)N[C@H](C(=O)N1CCC[C@H]1C(=O)N[C@H](C(=O)N[C@@H](CC(N)=O)C(=O)N[C@H](C(=O)NCC(=O)N[C@@H](CO)C(=O)N[C@@H](CCCCN)C(=O)N[C@@H](C)C(=O)N[C@@H](Cc1ccccc1)C(N)=O)C(C)C)[C@@H](C)O)C(C)C)C(C)C)C(C)C` [hαCGRP], the Emax at hCTR G369A was 131 ± 20%; at hCTR I300A, 73 ± 14%; at hCTR R281A it was 114 ± 25%; at hCTR V283A, 130 ± 19%. The EC50 at hCTR G369A is 24.5 nM; at hCTR I300A, 19.5 nM; on hCTR R281A it was 38.9 nM; on hCTR V283A, 12.9 nM.

For `CSCC[C@H](NC(=O)CNC(=O)[C@H](CO)NC(=O)[C@H](Cc1ccccc1)NC(=O)[C@H](CCCNC(=N)N)NC(=O)[C@H](Cc1c[nH]cn1)NC(=O)[C@H](Cc1ccccc1)NC(=O)[C@H](CC(N)=O)NC(=O)[C@H](CC(N)=O)NC(=O)[C@H](CC(C)C)NC(=O)[C@H](CC(N)=O)NC(=O)[C@H](CCCNC(=N)N)NC(=O)[C@H](Cc1c[nH]c2ccccc12)NC(=O)[C@H](Cc1ccc(O)cc1)NC(=O)[C@H](C)NC(=O)[C@H](CO)NC(=O)[C@H](CC(C)C)NC(=O)[C@@H](NC(=O)[C@@H]1CSSC[C@H](N)C(=O)N[C@@H](CO)C(=O)N[C@@H](CC(N)=O)C(=O)N[C@@H](CC(C)C)C(=O)N[C@@H](CO)C(=O)N[C@@H]([C@@H](C)O)C(=O)N1)C(C)C)C(=O)NCC(=O)N[C@@H](Cc1ccccc1)C(=O)NCC(=O)N1CCC[C@H]1C(=O)N[C@@H](CCC(=O)O)C(=O)N[C@H](C(=O)N1CCC[C@H]1C(N)=O)[C@@H](C)O` [pCT] (H-CSNLSTCVLSAYWRNLNNFHRFSGMGFGPETP-NH2; disulfide 1-7), the maximal effect (Emax) at hCTR C289A came out at 115 ± 7%; on hCTR G369A it was 89 ± 7%; on hCTR I300A, 117 ± 11%; on hCTR R281A, 147 ± 16%; at hCTR V283A, 107 ± 9%. Also, the 50% effective concentration (EC50) at hCTR C289A (cAMP, CV1-FlpIn cells, 30 min, IBMX) is 1.02 nM; at hCTR G369A it was 0.204 nM; on hCTR I300A it was 0.0501 nM; at hCTR R281A it was 0.646 nM; on hCTR V283A, 0.0316 nM.

In the case of `CC(C)C[C@H](NC(=O)[C@H](CC(N)=O)NC(=O)[C@H](CC(N)=O)NC(=O)[C@H](CO)NC(=O)[C@H](CO)NC(=O)[C@H](CCCNC(=N)N)NC(=O)[C@@H](NC(=O)[C@H](CC(C)C)NC(=O)[C@H](Cc1ccccc1)NC(=O)[C@H](CC(N)=O)NC(=O)[C@H](C)NC(=O)[C@H](CC(C)C)NC(=O)[C@H](CCCNC(=N)N)NC(=O)[C@H](CCC(N)=O)NC(=O)[C@@H](NC(=O)[C@H](C)NC(=O)[C@@H]1CSSC[C@H](NC(=O)[C@@H](N)CCCCN)C(=O)N[C@@H](CC(N)=O)C(=O)N[C@@H]([C@@H](C)O)C(=O)N[C@@H](C)C(=O)N[C@@H]([C@@H](C)O)C(=O)N1)[C@@H](C)O)C(C)C)C(=O)NCC(=O)N1CCC[C@H]1C(=O)N[C@H](C(=O)N[C@@H](CC(C)C)C(=O)N1CCC[C@H]1C(=O)N1CCC[C@H]1C(=O)N[C@H](C(=O)N[C@@H](CC(N)=O)C(=O)N[C@H](C(=O)NCC(=O)N[C@@H](CO)C(=O)N[C@@H](CC(N)=O)C(=O)N[C@H](C(=O)N[C@@H](Cc1ccc(O)cc1)C(N)=O)[C@@H](C)O)C(C)C)[C@@H](C)O)C(C)C` [rAmy], the Emax on hCTR C289A was 89 ± 23%; on hCTR G369A it was 78 ± 6%; on hCTR I300A, 109 ± 10%; on hCTR R281A, 63 ± 14%; on hCTR V283A it was 77 ± 10%.

Take `CC(C)C[C@H](NC(=O)[C@H](CCCCN)NC(=O)CNC(=O)[C@H](CC(C)C)NC(=O)[C@@H](NC(=O)[C@@H]1CSSC[C@H](N)C(=O)N[C@@H](CO)C(=O)N[C@@H](CC(N)=O)C(=O)N[C@@H](CC(C)C)C(=O)N[C@@H](CO)C(=O)N[C@@H]([C@@H](C)O)C(=O)N1)C(C)C)C(=O)N[C@@H](CO)C(=O)N[C@@H](CCC(N)=O)C(=O)N[C@@H](CCC(=O)O)C(=O)N[C@@H](CC(C)C)C(=O)N[C@@H](Cc1c[nH]cn1)C(=O)N[C@@H](CCCCN)C(=O)N[C@@H](CC(C)C)C(=O)N[C@@H](CCC(N)=O)C(=O)N[C@H](C(=O)N[C@@H](Cc1ccc(O)cc1)C(=O)N1CCC[C@H]1C(=O)N[C@@H](CCCNC(=N)N)C(=O)N[C@H](C(=O)N[C@@H](CC(N)=O)C(=O)N[C@H](C(=O)NCC(=O)N[C@@H](CO)C(=O)NCC(=O)N[C@H](C(=O)N1CCC[C@H]1C(N)=O)[C@@H](C)O)[C@@H](C)O)[C@@H](C)O)[C@@H](C)O` [sCT]: the Emax was found to be 140 ± 7% on hCTR C289A; 106 ± 8% at hCTR G369A; 113 ± 11% on hCTR I300A; 119 ± 5% on hCTR R281A; 116 ± 12% at hCTR V283A.

The values above are taken from article PMC5908784, “Extracellular loops 2 and 3 of the calcitonin receptor selectively modify agonist binding and efficacy” (Biochemical Pharmacology, 2018).
